From patent US20070249639A1, “Use of 9H-Purine-2,6-Diamine Derivatives in the Treatment of Proliferative Diseases and Novel 9H-Purine-2,6-Diamine Derivatives” (priority 2004, published 2007)

Assays:
Format in all cases: biochemical
[1] = target: T1, human topoisomerase II α (Homo sapiens, UniProt P11388); experiment: Topoisomerase II ATPase assay (Malachite Green); conditions: for inhibition at 10 µM: Percent inhibition @10 μM, Malachite Green assay, read-out: TOPO II inh. (inhibition of the TOPO ATPase activity)
T1 construct: purchased Professor Neil Osheroff (Vanderbilt University, Nashville, Tenn., USA)
Procedure: The inhibition of topoisomerase II is measured as follows:
Purified human topoisomerase II α was purchased from Professor Neil Osheroff (Vanderbilt University—Nashville, Tenn., USA).
The pUC18 (Stratagene) plasmid was introduced into Escherichia coil XL-1 (Stratagene) and purified with the HiSpeed Plasmid Purification kit (Qiagen) according to the manufacturer instructions. The purity of the DNA preparations was evaluated spectrophotometrically (OD260/OD280 ratio) and by agarose gel.
Preparation of the Malachite Green Reagent:
Three volumes of 0.045% malachite green (Sigma, catalog no. M-9636) diluted in water are mixed for 20 min at room temperature with one volume of 4.2% ammonium molybdate (Axon Lab AG, catalog no. A-2246) diluted in 4 N HCl. After mixing, Triton X-100 (Merck, catalog no. 1.12298) is added to a final concentration of 0.01%. The solution is filtered at 0.2 μm and stored at room temperature in the dark.
ATP hydrolysis was monitored by measuring the production of inorganic phosphate released during the catalytic cycle of topoisomerase II α with acidic molybdate and malachite green (Lanzetta,et al., An improved assay for nanomole amounts of inorganic phosphate, Anal Biochem 1979;100:95-7). Briefly, human topoisomerase II α is pre-incubated at 37° C. for 10 min in 90 μl reaction buffer (10 mM Tris.HCl pH 7.9, 175 mM KCl, 1 mM EDTA, 2 mM DTT, 5 mM MgCl2, 2.5% glycerol) in the presence of the indicated amount of pUC18 and DMSO in F96 maxisorp Nunclmmuno plates (Nunc). The reaction is initiated by the addition of 10 μl ATP at the indicated concentrations and is carried out for 30 min at 37° C. under constant agitation. The reaction is stopped by the addition of 200 μl molybdate/malachite green solution and the absorbance is immediately measured at 630 nm. The OD630 value is measured in the absence of protein for each ATP concentration (background) is subtracted from the value obtained in the presence of enzyme. A standard curve with inorganic phosphate is used to determine the amount of inorganic phosphate produced during the reaction and to ensure that the measures are in the linear range of the assay. The kinetic parameters of the enzymes are determined from measurements (at least in duplicate) of the initial rates at different ATP concentrations. The data are analyzed with GraFit (Erithacus Software).
The compounds are tested at 10 μM of concentration to determine their inhibition potential given % of inhibition of the TOPO II ATPase activity.
For the determination of the IC50, the procedure is repeated for different concentrations of test compound selected to cover the range of 0% to 100% inhibition and the concentration at which 50% inhibition of topoisomerase II occurs (IC50) for each compound is determined from concentration-inhibition curves in a conventional manner.

[2] = target: KDR (Homo sapiens, UniProt P35968); experiment: Kinase panel inhibition; conditions: @ 10 μM inhibitor; read-out: KDR kinase inh.
Procedure: (§1) Percentage Inhibition of the Kinase at 10 μM Concentration of the Inhibitor
(§2) Paul W. Manley, Pascal Furet, Guido Bold, Josef Brüggen, Jürgen Mestan, Thomas Meyer, Christian R. Schnell, and Jeanette Wood; Anthranilic Acid Amides: A Novel Class of Antiangiogenic VEGF Receptor Kinase Inhibitors J. Med. Chem. 2002, 45, 5687-5693. Wan, Yongqin; Hur, Wooyoung; Cho, Charles Y.; Liu, Yi; Adrian, Francisco J.; Lozach, Olivier; Bach, Stephane; Mayer, Thomas; Fabbro, Doriano; Meijer, Laurent; Gray, Nathanael S; Synthesis and Target Identification of Hymenialdisine Analogs Chemistry & Biology 2004, 11(2), 247-259.

[3] = target: Flt-4 (Homo sapiens, UniProt P35916); experiment: Kinase panel inhibition; conditions: @ 10 μM inhibitor; read-out: Flt-4 kinase inh.
Procedure: as §1, §2

[4] = target: ABL (Homo sapiens, UniProt P00519); experiment: Kinase panel inhibition; conditions: @ 10 μM inhibitor; read-out: ABL kinase inh.
Procedure: as §1, §2

[5] = target: Flt-1 (Homo sapiens, UniProt P17948); experiment: Kinase panel inhibition; conditions: @ 10 μM inhibitor; read-out: Flt-1 kinase inh.
Procedure: as §1, §2

[6] = target: HER1 (Homo sapiens, UniProt P00533); experiment: Kinase panel inhibition; conditions: @ 10 μM inhibitor; read-out: HER1 kinase inh.
Sequence of HER1 (P00533 25-1210, species assumed): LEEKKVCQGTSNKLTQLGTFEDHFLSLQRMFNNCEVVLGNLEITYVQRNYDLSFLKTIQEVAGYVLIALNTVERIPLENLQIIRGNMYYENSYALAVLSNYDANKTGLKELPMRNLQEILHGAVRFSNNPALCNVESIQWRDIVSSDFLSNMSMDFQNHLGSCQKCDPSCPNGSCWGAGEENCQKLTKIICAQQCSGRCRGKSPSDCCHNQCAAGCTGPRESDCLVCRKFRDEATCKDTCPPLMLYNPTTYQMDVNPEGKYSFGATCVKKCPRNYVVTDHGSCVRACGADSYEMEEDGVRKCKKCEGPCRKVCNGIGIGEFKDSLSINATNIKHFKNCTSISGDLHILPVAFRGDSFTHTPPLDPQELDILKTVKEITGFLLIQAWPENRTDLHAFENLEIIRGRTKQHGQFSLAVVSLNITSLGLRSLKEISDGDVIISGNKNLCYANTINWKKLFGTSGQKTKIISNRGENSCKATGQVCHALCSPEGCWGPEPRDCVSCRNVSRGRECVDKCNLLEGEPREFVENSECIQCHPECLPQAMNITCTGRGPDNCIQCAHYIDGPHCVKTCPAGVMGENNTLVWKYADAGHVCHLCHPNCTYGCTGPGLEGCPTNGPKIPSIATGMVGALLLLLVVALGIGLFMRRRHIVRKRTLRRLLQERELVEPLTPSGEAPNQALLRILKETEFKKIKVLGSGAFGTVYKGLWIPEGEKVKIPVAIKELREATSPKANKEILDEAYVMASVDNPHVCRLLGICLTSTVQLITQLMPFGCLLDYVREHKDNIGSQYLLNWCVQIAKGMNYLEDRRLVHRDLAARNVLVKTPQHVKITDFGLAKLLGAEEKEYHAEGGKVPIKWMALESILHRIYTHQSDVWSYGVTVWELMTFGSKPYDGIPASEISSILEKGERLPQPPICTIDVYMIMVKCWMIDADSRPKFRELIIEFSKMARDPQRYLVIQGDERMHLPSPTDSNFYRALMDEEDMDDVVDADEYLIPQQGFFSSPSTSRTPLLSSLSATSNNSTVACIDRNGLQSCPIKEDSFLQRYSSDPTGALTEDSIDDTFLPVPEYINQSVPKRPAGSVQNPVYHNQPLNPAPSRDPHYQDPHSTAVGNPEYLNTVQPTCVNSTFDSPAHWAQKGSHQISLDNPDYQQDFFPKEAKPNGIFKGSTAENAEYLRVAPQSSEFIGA
Procedure: as §1, §2

[7] = target: Raf-1 (Homo sapiens, UniProt P04049); experiment: Kinase panel inhibition; conditions: @ 10 μM inhibitor; read-out: Raf-1 kinase inh.
Procedure: as §1, §2

[8] = target: T2, PDK1 (Homo sapiens, UniProt O15530); experiment: Kinase panel inhibition; conditions: @ 10 μM inhibitor; read-out: PDK1 kinase inh.
T2 sequence (O15530 1-556): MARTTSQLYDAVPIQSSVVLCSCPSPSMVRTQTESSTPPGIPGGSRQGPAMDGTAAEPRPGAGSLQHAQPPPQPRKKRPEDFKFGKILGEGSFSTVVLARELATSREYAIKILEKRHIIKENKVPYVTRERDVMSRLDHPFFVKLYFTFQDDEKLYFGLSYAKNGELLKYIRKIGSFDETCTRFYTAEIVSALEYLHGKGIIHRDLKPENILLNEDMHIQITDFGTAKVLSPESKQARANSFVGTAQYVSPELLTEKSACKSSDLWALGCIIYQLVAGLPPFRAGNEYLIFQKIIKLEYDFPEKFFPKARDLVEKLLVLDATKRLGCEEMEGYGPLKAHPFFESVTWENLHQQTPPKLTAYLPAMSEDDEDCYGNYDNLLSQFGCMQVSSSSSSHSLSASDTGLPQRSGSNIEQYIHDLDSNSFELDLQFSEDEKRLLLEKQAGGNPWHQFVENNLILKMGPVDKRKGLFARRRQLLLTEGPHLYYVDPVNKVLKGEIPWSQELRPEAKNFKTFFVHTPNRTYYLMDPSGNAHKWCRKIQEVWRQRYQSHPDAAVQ
Procedure: as §1, §2

[9] = target: Tek (Homo sapiens, UniProt Q02763); experiment: Kinase panel inhibition; conditions: @ 10 μM inhibitor; read-out: Tek kinase inh.
Sequence of Tek (Q02763 23-1124, species assumed): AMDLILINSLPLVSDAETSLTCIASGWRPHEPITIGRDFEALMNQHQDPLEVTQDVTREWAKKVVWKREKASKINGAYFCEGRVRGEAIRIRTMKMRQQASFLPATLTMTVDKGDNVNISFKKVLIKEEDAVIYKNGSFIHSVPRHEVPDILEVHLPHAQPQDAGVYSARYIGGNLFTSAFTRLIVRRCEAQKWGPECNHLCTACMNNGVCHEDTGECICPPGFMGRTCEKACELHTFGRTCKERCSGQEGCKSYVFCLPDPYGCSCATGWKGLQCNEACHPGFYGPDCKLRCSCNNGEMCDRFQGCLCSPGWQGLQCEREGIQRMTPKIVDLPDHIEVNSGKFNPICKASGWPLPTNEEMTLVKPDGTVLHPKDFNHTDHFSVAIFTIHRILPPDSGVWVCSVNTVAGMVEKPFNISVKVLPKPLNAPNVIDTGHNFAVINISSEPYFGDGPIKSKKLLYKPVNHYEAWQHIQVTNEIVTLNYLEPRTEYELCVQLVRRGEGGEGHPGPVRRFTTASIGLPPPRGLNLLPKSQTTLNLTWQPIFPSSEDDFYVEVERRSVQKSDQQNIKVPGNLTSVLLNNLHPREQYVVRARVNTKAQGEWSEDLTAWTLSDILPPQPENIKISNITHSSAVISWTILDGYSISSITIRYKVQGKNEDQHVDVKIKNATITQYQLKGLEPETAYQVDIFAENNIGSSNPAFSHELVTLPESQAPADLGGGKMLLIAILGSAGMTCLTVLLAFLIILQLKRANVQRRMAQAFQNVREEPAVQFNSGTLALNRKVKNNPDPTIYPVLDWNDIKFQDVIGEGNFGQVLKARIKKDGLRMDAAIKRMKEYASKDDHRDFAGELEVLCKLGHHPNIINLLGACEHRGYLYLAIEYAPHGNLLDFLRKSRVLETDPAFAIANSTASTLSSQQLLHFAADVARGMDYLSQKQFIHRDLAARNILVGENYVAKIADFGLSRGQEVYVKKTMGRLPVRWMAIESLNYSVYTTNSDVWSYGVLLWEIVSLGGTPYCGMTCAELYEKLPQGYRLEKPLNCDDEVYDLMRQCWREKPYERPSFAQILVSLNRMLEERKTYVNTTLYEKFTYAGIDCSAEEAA
Procedure: as §1, §2

[10] = target: PKB (Homo sapiens, UniProt P31749); experiment: Kinase panel inhibition; conditions: @ 10 μM inhibitor; read-out: PKB kinase inh.
Sequence of PKB (P31749 whole entry, species assumed): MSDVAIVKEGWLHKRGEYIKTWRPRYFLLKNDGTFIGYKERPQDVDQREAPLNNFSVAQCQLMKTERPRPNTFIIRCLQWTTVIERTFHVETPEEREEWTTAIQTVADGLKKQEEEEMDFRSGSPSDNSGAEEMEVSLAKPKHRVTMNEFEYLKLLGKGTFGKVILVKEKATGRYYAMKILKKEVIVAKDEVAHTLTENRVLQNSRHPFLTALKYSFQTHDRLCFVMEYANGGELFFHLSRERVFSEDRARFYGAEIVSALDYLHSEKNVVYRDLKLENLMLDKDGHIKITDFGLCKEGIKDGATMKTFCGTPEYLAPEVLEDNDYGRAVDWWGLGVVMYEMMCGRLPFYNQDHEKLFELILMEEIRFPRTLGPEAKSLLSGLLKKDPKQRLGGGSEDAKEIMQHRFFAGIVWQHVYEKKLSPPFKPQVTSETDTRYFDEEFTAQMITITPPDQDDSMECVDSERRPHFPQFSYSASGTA
Procedure: as §1, §2

[11] = target: MET (Homo sapiens, UniProt P08581); experiment: Kinase panel inhibition; conditions: @ 10 μM inhibitor; read-out: MET kinase inh.
Sequence of MET (P08581 25-1390): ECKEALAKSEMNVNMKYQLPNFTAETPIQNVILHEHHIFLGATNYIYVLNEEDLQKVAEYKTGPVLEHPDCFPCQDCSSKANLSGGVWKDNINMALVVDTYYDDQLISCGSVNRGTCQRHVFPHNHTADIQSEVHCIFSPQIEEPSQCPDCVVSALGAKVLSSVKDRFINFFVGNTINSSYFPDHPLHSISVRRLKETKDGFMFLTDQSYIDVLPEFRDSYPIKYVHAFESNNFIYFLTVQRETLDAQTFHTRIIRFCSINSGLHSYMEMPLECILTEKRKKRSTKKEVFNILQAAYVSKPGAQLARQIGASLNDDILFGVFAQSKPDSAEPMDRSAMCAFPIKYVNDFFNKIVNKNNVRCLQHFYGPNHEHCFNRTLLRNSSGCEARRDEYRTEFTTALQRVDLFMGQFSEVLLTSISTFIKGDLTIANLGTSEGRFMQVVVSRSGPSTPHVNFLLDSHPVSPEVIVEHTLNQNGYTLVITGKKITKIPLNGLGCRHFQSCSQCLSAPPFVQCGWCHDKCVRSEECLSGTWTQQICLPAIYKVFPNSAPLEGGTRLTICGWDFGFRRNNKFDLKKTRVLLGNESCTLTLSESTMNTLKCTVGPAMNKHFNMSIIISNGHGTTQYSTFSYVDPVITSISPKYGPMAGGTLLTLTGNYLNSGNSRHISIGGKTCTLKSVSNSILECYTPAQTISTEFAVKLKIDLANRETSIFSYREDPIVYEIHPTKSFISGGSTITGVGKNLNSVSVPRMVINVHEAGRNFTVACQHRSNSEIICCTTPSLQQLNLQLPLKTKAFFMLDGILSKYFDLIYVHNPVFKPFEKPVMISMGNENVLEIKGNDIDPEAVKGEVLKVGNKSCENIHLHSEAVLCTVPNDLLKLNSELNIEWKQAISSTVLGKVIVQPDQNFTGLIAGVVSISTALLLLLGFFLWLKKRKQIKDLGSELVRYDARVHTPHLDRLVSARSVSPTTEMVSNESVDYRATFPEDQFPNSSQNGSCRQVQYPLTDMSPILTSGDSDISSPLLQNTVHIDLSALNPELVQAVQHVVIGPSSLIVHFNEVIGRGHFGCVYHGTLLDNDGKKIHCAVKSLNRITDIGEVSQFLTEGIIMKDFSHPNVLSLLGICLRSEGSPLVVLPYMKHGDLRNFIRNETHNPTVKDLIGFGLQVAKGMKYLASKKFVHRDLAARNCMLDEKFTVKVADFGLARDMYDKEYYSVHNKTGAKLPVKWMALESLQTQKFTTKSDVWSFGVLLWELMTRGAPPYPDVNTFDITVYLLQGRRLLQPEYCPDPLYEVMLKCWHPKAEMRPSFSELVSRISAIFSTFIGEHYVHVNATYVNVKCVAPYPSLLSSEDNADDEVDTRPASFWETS
Procedure: as §1, §2

[12] = target: KIT (Homo sapiens, UniProt P10721); experiment: Kinase panel inhibition; conditions: @ 10 μM inhibitor; read-out: KIT kinase inh.
Sequence of KIT (P10721 26-976, species assumed): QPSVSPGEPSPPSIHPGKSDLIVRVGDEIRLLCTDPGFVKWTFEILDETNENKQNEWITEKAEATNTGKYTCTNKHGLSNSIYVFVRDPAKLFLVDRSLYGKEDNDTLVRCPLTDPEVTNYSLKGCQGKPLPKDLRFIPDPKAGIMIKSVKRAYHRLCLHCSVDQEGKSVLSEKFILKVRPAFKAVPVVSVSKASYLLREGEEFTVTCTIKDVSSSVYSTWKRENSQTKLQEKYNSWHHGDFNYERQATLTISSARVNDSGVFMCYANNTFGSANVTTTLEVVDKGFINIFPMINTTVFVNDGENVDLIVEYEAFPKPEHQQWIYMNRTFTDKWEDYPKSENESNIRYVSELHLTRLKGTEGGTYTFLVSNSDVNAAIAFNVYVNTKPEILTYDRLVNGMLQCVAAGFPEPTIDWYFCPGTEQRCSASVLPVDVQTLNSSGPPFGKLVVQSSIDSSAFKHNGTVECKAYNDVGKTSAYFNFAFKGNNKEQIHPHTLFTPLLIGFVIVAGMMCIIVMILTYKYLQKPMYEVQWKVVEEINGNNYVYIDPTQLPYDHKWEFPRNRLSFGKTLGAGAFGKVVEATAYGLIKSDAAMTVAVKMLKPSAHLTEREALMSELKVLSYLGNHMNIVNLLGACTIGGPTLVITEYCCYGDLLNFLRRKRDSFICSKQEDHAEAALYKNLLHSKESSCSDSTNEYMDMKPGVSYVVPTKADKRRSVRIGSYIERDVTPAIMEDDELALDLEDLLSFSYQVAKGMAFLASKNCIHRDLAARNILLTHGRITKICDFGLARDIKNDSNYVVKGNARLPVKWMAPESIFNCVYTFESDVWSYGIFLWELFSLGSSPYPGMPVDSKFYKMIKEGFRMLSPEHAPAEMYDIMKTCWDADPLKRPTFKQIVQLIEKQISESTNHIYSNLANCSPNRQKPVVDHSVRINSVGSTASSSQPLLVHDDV
Procedure: as §1, §2

[13] = target: IGF (Homo sapiens, UniProt P08069); experiment: Kinase panel inhibition; conditions: @ 10 μM inhibitor; read-out: IGF kinase inh.
Procedure: as §1, §2

[14] = target: HER2 (Homo sapiens, UniProt P04626); experiment: Kinase panel inhibition; conditions: @ 10 μM inhibitor; read-out: HER2 kinase inh.
Procedure: as §1, §2

[15] = test system: PKA; experiment: Kinase panel inhibition; conditions: @ 10 μM inhibitor
Procedure: as §1, §2

[16] = test system: FGFR; experiment: Kinase panel inhibition; conditions: @ 10 μM inhibitor
Procedure: as §1, §2

Compound | IC50 [1] | inhibition at 10 µM [1] | inhibition at 10 µM [2] | inhibition at 10 µM [3] | inhibition at 10 µM [4] | inhibition at 10 µM [5] | inhibition at 10 µM [6] | inhibition at 10 µM [7] | inhibition at 10 µM [8] | inhibition at 10 µM [9] | inhibition at 10 µM [10] | inhibition at 10 µM [11] | inhibition at 10 µM [12] | inhibition at 10 µM [13] | inhibition at 10 µM [14] | PKA kinase inh. [15] | FGFR kinase inh. [16]
CCc1nc2c(NC(C)(C)C)nc(Nc3ccc4ncsc4c3)nc2[nH]1 [Example 27, N*2*-Benzothiazol-6-yl-N*6*-tert-butyl-8-ethyl-9H-purine-2,6-diamine] | 600 nM | ≥ 80% | 50 to 65% | < 50% | 50 to 65% | < 50% | < 50% | < 50% | < 50% | 65 to 80% | < 50% | < 50% | < 50% | < 50% | < 50% | – | –
Cc1nc2c(NC(C)(C)C)nc(Nc3ccc4ncsc4c3)nc2[nH]1 [Example 25, N*2*-Benzothiazol-6-yl-N*6*-tert-butyl-8-methyl-9H-purine-2,6-diamine] | 2100 nM | 65 to 80% | 50 to 65% | < 50% | 65 to 80% | < 50% | < 50% | < 50% | < 50% | < 50% | < 50% | < 50% | < 50% | < 50% | < 50% | + (<65% ≧ 50%) | –
CC(C)(C)Nc1nc(Nc2ccc3ncsc3c2)nc2[nH]cnc12 [Example 14, N*2*-Benzothiazol-6-yl-N*6*-tert-butyl-9H-purine-2,6-diamine] | – | – | ≥ 80% | ≥ 80% | ≥ 80% | 65 to 80% | 65 to 80% | 65 to 80% | ≥ 80% | ≥ 80% | 50 to 65% | ≥ 80% | ≥ 80% | ≥ 80% | 65 to 80% | – | ++ (<80% ≧ 65%)

Results, then the molecule that gave them:

IC50 [1] | inhibition at 10 µM [1] | inhibition at 10 µM [2] | inhibition at 10 µM [3] | inhibition at 10 µM [4] | inhibition at 10 µM [5] | inhibition at 10 µM [6] | inhibition at 10 µM [7] | inhibition at 10 µM [8] | inhibition at 10 µM [9] | inhibition at 10 µM [10] | inhibition at 10 µM [11] | inhibition at 10 µM [12] | inhibition at 10 µM [13] | inhibition at 10 µM [14] | PKA kinase inh. [15] | FGFR kinase inh. [16] | Compound
– | 65 to 80% | – | – | – | – | – | – | – | – | – | – | – | – | – | – | – | CC(C)(C)Nc1nc(Nc2ccc3ncsc3c2)nc2[nH]c(N)nc12 [Example 42, N*2*-Benzothiazol-6-yl-N*6*-tert-butyl-9H-purine-2,6,8-triamine]
– | < 50% | – | – | – | – | – | – | – | – | – | – | – | – | – | – | – | c1cncc(N2CCN(c3nc(Nc4ccc5ncsc5c4)nc4[nH]cnc34)CC2)c1 [Example 59, Benzothiazol-6-yl-[6-(4-pyridin-3-yl-piperazin-1-yl)-9H-purin-2-yl]-amine]
– | ≥ 80% | – | – | – | – | – | – | – | – | – | – | – | – | – | – | – | CCc1nc2c(NC(C)(C)C)nc(Nc3ccc4nc(OCCN5CCOCC5)sc4c3)nc2[nH]1 [Example 37, N*6*-tert-Butyl-8-ethyl-N*2*-[2-(2-morpholin-4-yl-ethoxy)-benzothiazol-6-yl]-9H-purine-2,6-diamine]
